# Test results published in article PMC12163684, “Gunacins: Novel Benzo[g]chromene Derivatives from the Fungus Exobasidium sp. and Their Potent Anti-Leishmania and Trypanosoma Activities” (ACS Omega, 2025).
# Experiments:
# [1] = tested on: RAT2 fibroblast cell line; assay: Cytotoxicity on proliferating cells, crystal violet assay, OD590; type: cell-based; conditions: Rat2, 24 h, 24 h treatment, read-out: EC50 ± SEM RAT2
# Protocol: (§1) MDCK and RAT cells were cultured in DMEM with 10% FBS at 37 °C in a 5% CO2 atmosphere as described previously. , To assess the toxic effects of the compounds on proliferating cells, cells were seeded in 24-well plates for 24 h to reach ∼15% confluence, and cells were treated in triplicate with increasing concentrations of the isolated compounds for an additional 24 h. Cells were washed with 1× PBS, fixed in staining solution (0.5% crystal violet, 20% methanol) for 10 min, and gently washed five times in 1× PBS. The fixed cells were then dissolved in lysis solution (0.1 M sodium citrate, 25% ethanol, pH 4.2) for 30 min, transferred to a 96-well plate in H2O, and the OD^590 was determined. EC50 values were determined using GraphPad Prism software and the dose–response fit equation. The EC50 values were determined from two independent experiments. Additionally, the impact of the isolated substances on the morphology of the HeLa adenocarcinoma cell line and primary human skin fibroblasts was examined by using fluorescence microscopy. Cells were cultured in DME medium supplemented with 10% FCS (Gibco, Invitrogen, Carlsbad, USA) on glass coverslips in 24-well plates until reaching approximately 50% confluence. The cells were treated with varying concentrations of isolated compounds dissolved in DMSO. Wells containing DMEM with DMSO served as the negative control. After 24 h cultivation, the cells were incubated with MitoTracker Red CMXRos (10 min) to label mitochondria, then fixed with 3.7% paraformaldehyde in PBS (20 min, room temperature), permeabilized with 0.1% Triton X-100 in PBS, and blocked with 1% BSA in PBS. The cells were then stained with Phalloidin-Alexa Fluor488 conjugate. All fluorescence reagents were purchased from Molecular Probes, Invitrogen, Carlsbad, CA, USA. Nuclei were stained with Fluoroshield DAPI (Sigma-Aldrich), and cells were examined using an IX71 microscope equipped with a DP70 camera and a 40× objective. Assays were performed at concentrations of 5, 25, 50, 100, and 125 μM.
# [2] = tested on: Madin–Darby canine kidney (MDCK) epithelial cell line; assay: as above; type: cell-based; conditions: Canis lupus familiaris, 24 h treatment, read-out: EC50 ± SEM MDCK
# Protocol: as §1
# [3] = tested on: L. mexicana (MNYC/BZ/1962/M379) promastigote; assay: Anti-Leishmania activity, AB assay, axenic promastigotes; type: cell-based
# Protocol: (§2) Promastigote stages of L. mexicana (MNYC/BZ/1962/M379), a generous gift from Vyacheslav Yurchenko, were cultured in M199 medium pH 7.4 supplemented with 2 μg/mL biopterin, 2 μg/mL hemin, 25 mM HEPES, 100 U/mL penicillin/streptomycin, and 10% heat-inactivated FBS (BioSera) pH 7.4 at 25 °C. The amastigotes were differentiated in vitro from late log/stationary promastigote cultures and cultivated in Schneider’s Drosophila Medium (SIM) at pH 5.5, supplemented with 1.5 μg/mL hemin, 100 U/mL penicillin/streptomycin, and 20% heat-inactivated FBS (BioSera) at pH 5.5, at 32 °C, and 5% CO2. Following a three-day period, the promastigotes underwent a transformation into amastigotes, which were then maintained in SIM.
# (§3) To estimate the EC50, the AB assay, as previously described, was employed. The results are expressed as EC50, representing the dose of the compound required to inhibit cellular growth by 50%. Each EC50 value is the mean ± the standard error of the mean derived from at least three separate experiments, each performed in duplicate.
# [4] = tested on: L. mexicana (MNYC/BZ/1962/M379) amastigote; assay: Anti-Leishmania activity, AB assay, axenic amastigotes; type: cell-based
# Protocol: as §2, §3
# T. b. brucei 427 = assay: Anti-trypanosomal activity, resazurin (AB assay), bloodstream form; type: cell-based; conditions: Trypanosoma brucei, 72 h, axenic, 48 h + 24 h resazurin
# Protocol: (§4) The bloodstream forms of T. b. gambiense LiTat 1.3, T. b. brucei 427, and T. b. evansi AnTat 3/3 were grown in HMI-11 medium pH 7.3 supplemented with 36 mM sodium bicarbonate, 100 U/mL penicillin/streptomycin, and 10% fetal bovine serum at 37 °C and 5% CO2. The bloodstream form of Trypanosoma congolense IL3000 (generous gift from Liam Morrison) was cultured in TcBSF-1 medium pH 7.3 supplemented with 26 mM sodium bicarbonate, 25 mM HEPES, 5.5 mM glucose, 1 mM sodium pyruvate, 0.04 mM adenosine, 0.1 mM hypoxanthine, 0.02 mM thymidine, 0.02 mM bathocuproine, 2 mM L-glutamine, 0.2 mM 2-mercaptoethanol, 100 U/ml penicillin/streptomycin, and 20% goat serum New Zealand origin (Gibco) at 34 °C, 5% CO2. The assay for anti-trypanosomal activity was performed using the resazurin sodium salt dye (AB Assay) according to the published protocol in a 96-well plate format. Parasites at a number of 5 × 10^3 per well (T. b. brucei and T. b. gambiense) or 1 × 10^4 per well (T. b. evansi) were incubated with different drug concentrations (2-fold serial dilutions) in a volume of 200 μL of the medium. Medium with 1% DMSO (the highest concentration of the solvent used in the assay) was used to confirm no effect of the solvent on the cell growth. The plates were incubated for 48 h at the appropriate temperature. Then, 20 μL of resazurin sodium salt solution (0.125 mg/mL in 1× PBS, pH 7. 4) was added to each well, and the cells were incubated for another 24 h under the same conditions. The fluorescence signal was quantified using a Tecan Infinite M200 plate reader at excitation and emission wavelengths of 560 and 590 nm, respectively. The EC50 values were calculated using GraphPad Prism 9.5.1 by nonlinear regression with a variable slope. Each EC50 value is the mean ± standard error of the mean of three separate experiments performed in duplicate.
# [5] = tested on: Trypanosoma congolense IL3000; assay: as above; type: cell-based; conditions: 72 h, axenic, 48 h + 24 h resazurin, read-out: EC50 T. congolense
# Protocol: as §4
# K. rhizophila ATCC 9341 = assay: Minimum inhibitory concentration (MIC) testing, serial binary dilution in 96-well plates; type: cell-based; conditions: Kocuria rhizophila, ATCC9341; 24 h in the dark; lowest concentration with no live microorganisms
# Protocol: (§5) Minimum inhibitory concentration (MIC) testing of the extracts was performed using 96-well polypropylene plates against four different microorganisms: the Gram-positive bacterium K. rhizophila ATCC 9341, the Gram-negative bacterium E. coli ATCC 3988, and the yeasts C. albicans CCM 8215 and C. neoformans CCF 1081.
# (§6) A working inoculum of each microorganism was prepared as follows: for E. coli and K. rhizophila, the inoculum was grown in LB medium (LB Broth, 25 g/L, incubated at 36 °C); for C. albicans and C. neoformans, YM6.3 medium (maltose extract 10 g, glucose 4 g, yeast extract 4 g per 1 L distilled water, incubated at 24 °C) with a cell concentration of approximately 5 × 10^5 cells/mL for all microorganisms was used.
# (§7) Chloramphenicol served as a positive control for bacteria, while cycloheximide was used as a positive control for fungi. The gradient of the test substances was established by serial binary dilution across the wells. The MIC was determined by identifying the lowest concentration at which no live microorganisms were present. Cultivation was performed in the dark for 24 h.
# C. neoformans CCF 1081 = assay: as above; type: cell-based; conditions: Cryptococcus neoformans, CCF1081; 24 h in the dark; n.d. = activity not detected; highest tested concentration 66.7 μM
# Protocol: as §5, §6, §7
# C. albicans CCM 8215 = assay: as above; type: cell-based; conditions: Candida albicans, CCM8215; 24 h in the dark; n.d. = activity not detected; highest tested concentration 66.7 μM
# Protocol: as §5, §6, §7
# E. coli ATCC 3988 = assay: as above; type: cell-based; conditions: Escherichia coli, ATCC3988; 24 h in the dark; lowest concentration with no live microorganisms
# Protocol: as §5, §6, §7
# [6] = tested on: T. b. gambiense LiTat 1.3; assay: Anti-trypanosomal activity, resazurin (AB assay), bloodstream form; type: cell-based, T. brucei gambiense; conditions: Trypanosoma brucei, 72 h, axenic, 48 h + 24 h resazurin
# Protocol: as §4
# T. b. evansi AnTat 3/3 = assay: as above; type: cell-based, T. brucei evansi; conditions: Trypanosoma brucei, 72 h, axenic, 48 h + 24 h resazurin
# Protocol: as §4
Structure (SMILES),EC50 [1] [µM],EC50 [2] [µM],EC50 [3] [µM],EC50 [4] [µM],EC50 (T. b. brucei 427) [µM],EC50 [5] [µM],MIC (K. rhizophila ATCC 9341) [µM],MIC (C. neoformans CCF 1081) [µM],MIC (C. albicans CCM 8215) [µM],MIC (E. coli ATCC 3988) [µM],EC50 [6] [µM],EC50 (T. b. evansi AnTat 3/3) [µM]
"COc1cc(O)c2c(c1)C(=O)C1=C(C2=O)[C@@H](O)[C@@H](O)[C@@H](C)O1 [Compound 4, (2R,3R,4R)-3,4,6-trihydroxy-8-methoxy-2-methyl-3,4-dihydro-2H-benzo[g]chromene-5,10-dione]",5.1 ± 0.1,6 ± 1,,,,,,,,,,
"C[C@@H]1[C@H](O)[C@@H](C)/C=C/C=C/C=C/C=C/C=C/C=C/C=C/[C@H](O[C@@H]2O[C@H](C)[C@@H](O)[C@H](N)[C@@H]2O)C[C@@H]2O[C@](O)(C[C@@H](O)C[C@@H](O)[C@H](O)CC[C@@H](O)C[C@@H](O)CC(=O)O[C@H]1C)C[C@H](O)[C@H]2C(=O)O [amphotericin B, reference compound]",,,0.1,,,,,,,,,
"COc1cc(O)c2c(c1)C(=O)C1=C(C[C@@H](O)[C@@H](C)O1)C2=O [Compound 6, (2R,3R)-3,6-dihydroxy-8-methoxy-2-methyl-3,4-dihydro-2H-benzo[g]chromene-5,10-dione]",6.7 ± 0.8,7.2 ± 0.5,25.2,5.5,5.1,9.2,8.3,66.7,66.7,2.1,8.6,2.4
"O=C(N[C@H](CO)[C@H](O)c1ccc([N+](=O)[O-])cc1)C(Cl)Cl [chloramphenicol, reference compound]",,,,,,,10.3,,,10.3,,
